US4774259A, “Phenylalanine derivatives and uses thereof” (Ajinomoto Co., Inc., priority 1985, dated 1988)

Experiments:
[1] = Absorption promoting test of insulin, oral, mice (Example 3): blood glucose value; type: in vivo, female ICR-CDI mice; conditions: for decrease in the blood glucose value (in words): oral with insulin, compared with a control group
Description: A test for the promotion of the absorption of insulin was carried out upon the above-described absorption promoters and upon two known absorption promoting agents. Thus, insulin in a prescribed dose (23.3 unit/mg) and the absorption promoter, as given in the Table below, were dissolved or suspended in a 0.05M phosphate buffer. Then groups of five female ICR-CDI mice, 6 to 7 weeks old, which had not been fed for 18 hours, were orally administered with the predetermined buffer solution (0.5 ml). A predetermined time later, the blood glucose value of each group of mice was determined.

male ICR mice = experiment: Toxicity test, oral LD50, mice (Example 4); type: in vivo; conditions: compared with known absorption promoting agents
Description: Predetermined amounts of the absorption promoters listed in the Table were each suspended in 0.5% CMC sodium salt solution. Groups of ten male ICR mice, 4 weeks old, were orally administered with the suspension. Two weeks thereafter, the LD50 values were determined.

[2] = Absorption promoting test of insulin, oral, mice (Example 7): blood glucose and immunoreactive insulin; type: in vivo, female ICR-CDl mice; conditions: for Decrease in Blood Glucose / Degree of increase of Blood Insulin: insulin 0.5 unit/10 g, promoter 3 mg/10 g, oral, compared with phosphate buffer control; for effect on decreasing the blood glucose value and increasing the blood insulin level (in words): oral with insulin
Description: A test for the absorption of insulin was carried out with absorption promoters of the present invention. Thus, insulin (0.5 unit/10 g weight) and the absorption promoter (3 mg/10 g weight) were suspended in a 0.05M phosphate buffer. Then the group of five female ICR-CDl mice, 5 to 7 weeks old, which were fasted for 18 hours, were orally administered with the prepared suspension.
The blood glucose value and the immunoreactive insulin level of each group of mice were determined at the fixed time.
The percent decrease in blood glucose and the degree of increase of blood insulin as compared with a phosphate buffer control group were shown in Table 2.

Compound	Blood Glucose ([1]; insulin 50 unit/kg, absorption promoter 150 mg/kg, oral, 30 minutes, control 82.4 ± 8.1)	decrease in the blood glucose value (in words) [1]	LD50 value (in words) (male ICR mice)	Decrease in Blood Glucose ([2]; 15 minutes)	Degree of increase of Blood Insulin ([2]; 15 minutes)	Decrease in Blood Glucose ([2]; 30 minutes)	Degree of increase of Blood Insulin ([2]; 30 minutes)	Decrease in Blood Glucose ([2]; 60 minutes)	Degree of increase of Blood Insulin ([2]; 60 minutes)	effect on decreasing the blood glucose value and increasing the blood insulin level (in words) [2]
Cc1ccc(C=CC(=O)N[C@@H](Cc2ccccc2)C(=O)O)cc1 [N-(4-methylcinnamoyl)-L-phenylalanine]	78.0 ± 7.8 mg/dL	small	–	–	–	–	–	–	–	–
Cc1ccc(C=C(F)C(=O)N[C@H](Cc2ccccc2)C(=O)O)cc1 [N-(α-fluoro-4-methylcinnamoyl)-D-phenylalanine]	–	excellent effect in decreasing the blood glucose value	excellent LD50 value	–	–	–	–	–	–	–
Cc1ccc(C=C(F)C(=O)N[C@@H](Cc2ccccc2)C(=O)O)cc1 [N-(α-fluoro-4-methylcinnamoyl)-L-phenylalanine]	–	excellent effect in decreasing the blood glucose value	excellent LD50 value	–	–	–	–	–	–	–
O=C(N[C@@H](Cc1ccccc1)C(=O)O)C(F)=Cc1ccccc1 [N-(α-fluorocinnamoyl)-L-phenylalanine]	–	small	–	–	–	–	–	–	–	–
Cc1ccc(C(Cl)=CC(=O)N[C@H](Cc2ccccc2)C(=O)O)cc1 [N-(β-chloro-4-methylcinnamoyl)-D-phenylalanine]	–	–	–	35.7%	2.1	47.8%	3.3	42.8%	1.0	excellent effect on decreasing the blood glucose value and increasing the blood insulin level
Cc1ccc(C(Cl)=CC(=O)N[C@@H](Cc2ccccc2)C(=O)O)cc1 [N-(β-chloro-4-methylcinnamoyl)-L-phenylalanine]	–	–	–	42.1%	10.5	21.6%	2.0	12.1%	2.1	excellent effect on decreasing the blood glucose value and increasing the blood insulin level
